The results in this text go back to patent publication US12263144B2, “Methods of treating IgA nephropathy with thiol-containing molecules” (Accubit LLC—Biotechnology, priority 2020, dated 2025).

What all share (format): biochemical
For test [1], the system named is natural IgA1 assembly (two heavy chains and two light chains connected via disulfide bonds). Description: Ex vivo study: integrity of natural IgA assembly under thiol/reducing agents. The protocol:
(§1) The overall complex size of IgA aggregates was determined either by size-exclusion chromatography (SEC: Superdex 200 Increase 10/300 by GL Cytiva), or by SDS-PAGE. For evaluating the involvement of intermolecular disulfide connectivity in IgA complexes, IgA samples were treated with either reducing agents, such as DTT, TCEP or reduced glutathione (Sigma), or interventional drugs, such as cysteamine (Sigma), WR-1065 (Sigma) and N-Acetyl-L-cysteine (VWR Chemicals) in phosphate-buffered saline (PBS) pH7.4. Before running on SEC, samples were treated with the drugs at indicated concentrations at 37° C. for one hour.
(§2) Proteins in sample buffer (Bio-Rad Laboratories, Hercules, CA, USA) with or without TCEP (for reducing or nonreducing condition, respectively) were resolved by 4-12% SDS-PAGE (Bio-Rad Laboratories). IgA bands were subsequently visualized either by staining with GelCode Blue (Thermo Fisher Scientific), or by Western blotting on PVDF membrane. For Western blotting, 5% non-fat milk was used in blocking for one hour at room temperature. The membrane was then incubated with mouse anti-Histag antibody (Thermo Scientific), or HRP-conjugated goat anti-rat IgA α-chain antibody (Cat. ab97185, Abcam, UK), or goat anti-human IgA HRP antibody (Cat: 2050-05, SouthernBiotech) for detecting rat or human IgA (Fc), respectively. The membrane was developed using the Clarity™ ECL substrate (Bio-Rad Laboratories, CA, USA).

Test [2] addresses T1, human IgA1 (poly-IgA1) (Homo sapiens, UniProt P01876).
T1 construct: human IgA1 whole molecule was purified from pooled plasma of IgA nephropathy patients; from tissue
In words: SEC of native human IgA1 treated ex vivo. The note with it: total IgA1 from human sera, FIG. 5 E-F.
Excerpt: (§3) IgA1 from IgA nephropathy patient sera was purified by Jacalin (Thermo Scientific, USA)-directed affinity chromatography. Poly-IgA1 contents were further enriched via running Superdex 200 Increase gel filtration molecular sieve (GE Biosciences) and collecting high-molecular weight fractions from an AKTA protein purification system (GE Biosciences). Human serum from healthy donors was purchased from Sigma-Aldrich and total IgA1 was also purified by running Jacalin-directed chromatography. Purified total IgA1 was used for injecting mice.
as §1
(§4) In the meantime, the SEC column was also equilibrated with PBS supplemented with the reducing agent at the same concentration. For running SEC, 100 μL of the recombinant IgA (concentration varies between 1 mg/mL and 8 mg/mL) or purified native human IgA1 (˜1 mg/mL) was loaded to the column and UV absorption was recorded following elution. Recombinant IgA typically formed two elution peaks: a minor peak of ˜800 kDa poly-rIgA followed by a major peak of ˜170 kDa of monomeric rIgA. The ratios between poly-rIgA and mono-rIgA were calculated as between the corresponding areas under the curve (AUC), and the treatment effect of the thiol agents was judged by the reduction of the poly-rIgA level with a compensatory increase of the mono-rIgA content.
In addition, human IgA1 whole molecule was purified from pooled plasma of IgA nephropathy patients and subjected the sample to different concentrations of cysteamine (FIG. 5, part C). […]

Test [3] relates to Rat rIgA (poly-rIgA). Description: SEC determination of poly- and mono-rIgA content of rat rIgA after treatment. Conditions: for disassembly of poly-rIgA into monomers (SEC): rat rIgA, reducing agents added, FIG. 3 A-C. The procedure:
as §1
as §4, with “Recombinant IgA typically formed two elution peaks: a minor peak of ˜800 kDa poly-rIgA followed by a major peak of ˜170 kDa of monomeric rIgA.” left out
To further investigate specific cysteine residue(s) involved in IgA complexes, expression vectors were constructed to produce recombinant IgA (rIgA) Fc segments of rat and human sequences (FIG. 2, part A) as discussed above. Rat IgA analogs were expressed in BL21 DE3 strain of E. coil and recombinant protein were purified from the bacterial lysate using Histrap HP columns (GE Healthcare) by running fast protein liquid chromatography (FPLC). Human recombinant IgA mimetics were produced from human embryo kidney (HEK293) cells by transfection of the expressing plasmids. Recombinant IgA proteins expressed by the cells were secreted into the culture medium, and they were subsequently purified by Histrap HP columns by FPLC using standard procedures. […] Rat rIgA was produced from bacterial expression as discussed above.
Cysteamine (Cy), an aminothiol that can react with cysteine, is both a natural metabolite produced in mammalian cells and a clinical drug used for treatment of cystinosis. In cystinosis, cysteamine reduces the disulfide bond in cystine, which is the oxidated dimer of amino acid cysteine (FIG. 4, part A). In the context of cysteine residues in proteins, endogenous cysteamine as well as the therapeutic drug forms mixed disulfides with susceptible cysteine sulfhydryl groups in a process called cysteamination (FIG. 4, part B). It was sought to determine whether cysteamine could reduce Cys471-disulfides to disaggregate poly-IgA. Rat rIgA (SEQ ID NO.4) was treated with various concentrations of cysteamine for one hour at 37° C. in phosphate buffered saline at neutral pH and the protein complexes were analyzed by SEC. The SEC column (model: Superdex 200 Increase 10/300 GL by Cytiva) was preequilibrated with the same buffer supplemented with the same concentration of cysteamine.

Test [4] addresses T2, poly-IgA complexes from IgA nephropathy patients' plasma (Homo sapiens, UniProt P01876).
T2 construct: human IgA1 whole molecule was purified from pooled plasma of IgA nephropathy patients; from tissue
Description: SDS-PAGE / anti-IgA Western blotting of poly-IgA from IgA nephropathy patients' plasma with or without reducing agent. The note with it: reducing condition.
Excerpt: as §3
Proteins in sample buffer (Bio-Rad Laboratories, Hercules, CA, USA) with or without TCEP (for reducing or nonreducing condition, respectively) were resolved by 4-12% SDS-PAGE (Bio-Rad Laboratories). IgA bands were subsequently visualized either by staining with GelCode Blue (Thermo Fisher Scientific), or by Western blotting on PVDF membrane. […]
In this Example, it was sought to isolate high molecular weight IgA complexes, such as poly-IgA, from plasma of IgA nephropathy patients. […] By running SDS-PAGE of the poly-IgA fraction under both reducing and nonreducing conditions, it was determined that the molecular complexes of IgA were connected through disulfide bridges (FIG. 1, part B). […] IgA1 complexes were extracted from individual patients by SEC and analyzed the contents by SDS-PAGE.
A general note: In western blotting, separated proteins are transferred to a membrane and probed.

The subject of test [5] is rat poly-rIgA. In words: Nonreducing SDS-PAGE analysis of rat poly-rIgA after pretreatment. Conditions: cysteamine 0 to 10 mM; TCEP 10 mM; untreated poly-IgA >250 kDa. The protocol:
as §2
To further ascertain the mechanism-of-action of cysteamine in targeting disulfides, nonreducing SDS-PAGE analysis was performed of rat poly-rIgA (FIG. 5, part D). The samples were pretreated with 0 to 10 mM cysteamine, or 10 mM TCEP as positive control. As expected, poly-IgA appeared as >250 kDa bands on SDS-PAGE. Dose-dependent response of poly-rIgA to cysteamine was evident, with majority of the protein running at ˜64 kDa of disaggregated monomers.

T1 sequence (P01876 1-353 isoform P01876-1): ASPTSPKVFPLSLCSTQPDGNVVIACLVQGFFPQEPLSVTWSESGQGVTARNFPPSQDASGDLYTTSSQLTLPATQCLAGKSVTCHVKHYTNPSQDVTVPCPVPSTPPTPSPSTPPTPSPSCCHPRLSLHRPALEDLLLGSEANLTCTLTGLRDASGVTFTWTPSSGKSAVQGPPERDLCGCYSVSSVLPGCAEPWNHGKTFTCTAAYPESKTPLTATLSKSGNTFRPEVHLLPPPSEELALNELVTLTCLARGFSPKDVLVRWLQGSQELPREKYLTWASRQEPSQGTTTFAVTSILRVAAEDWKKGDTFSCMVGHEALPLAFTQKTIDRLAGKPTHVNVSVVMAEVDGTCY
T2 sequence (P01876 1-353 isoform P01876-1, one chain of several): as the sequence (P01876 1-353 isoform P01876-1) above

In the case of `NCCCNCCS` [WR-1065, 2-[(3-aminopropyl)amino]ethanethiol], the “disruption of natural IgA assembly / normal pairing of IgA heavy chains” value in test [1] is “did not cause unwanted disruption of natural IgA1 assembly”. Further, the “poly-IgA level (SEC)” value in test [2] was “reduction of poly-IgA levels”.

`N[C@@H](CCC(=O)N[C@@H](CS)C(=O)NCC(=O)O)C(=O)O` [glutathione]: in test [3] (compared with cysteamine, WR-1065, N-acetylcysteine), the “effect on poly-IgA levels at comparable concentrations” value is “relatively modest effects on poly-IgA levels”.

`O[C@@H](CS)[C@@H](O)CS` (racemic) [DDT, 1,4-Dithiothreitol]: the “disruption of natural IgA assembly / normal pairing of IgA heavy chains” value in test [1] was “inadvertently dissociated normal pairing of IgA heavy chains”. In test [3], the “disassembly of poly-rIgA into monomers (SEC)” value is “poly-rIgA disassembled into monomers”.

On to `CC(=O)N[C@@H](CS)C(=O)O` [N-acetylcysteine, N-acetyl-L-cysteine], for which the “disruption of natural IgA assembly / normal pairing of IgA heavy chains” value in test [1] is reported as “did not cause unwanted disruption of natural IgA1 assembly”. In addition, the “poly-IgA level (SEC)” value in test [2] is on record as “lowered poly-IgA levels in a dose-dependent manner”.

Turning to `OCCS` [2-mercaptoethanol], the “size of IgA1 band after reduction of ~600 kDa poly-IgA1 (Western blot)” value in test [4] (eight individual IgA nephropathy patients) is given as ~65 kDa.

For `O=C(O)CCP(CCC(=O)O)CCC(=O)O` [TCEP, tris(2-carboxyethyl)phosphine], the “disruption of natural IgA assembly / normal pairing of IgA heavy chains” value in test [1] is on record as “inadvertently dissociated normal pairing of IgA heavy chains”. In test [5], the “molecular weight of protein band after pretreatment (nonreducing SDS-PAGE)” value is listed as ~32 kDa. The “disassembly of poly-rIgA into monomers (SEC)” value in test [3] is recorded as “poly-rIgA disassembled into monomers”. Also, in test [4] (pooled plasma of IgA nephropathy patients (n=10)), the “size of IgA band after reduction of ~600 kDa poly-IgA (Western blot)” value was ~65 KDa.
